Measured values taken from patent US10413505B1, “Pharmaceutical compositions and methods of using the same” (priority 2017, dated 2019).
Marks after values point to notes of the source that are not given here.

Legend:
[1] = Example 1 single-dose plasma pharmacokinetics after intranasal administration; assay type: in vivo, human; settings: healthy subjects; single intranasal 160 mg cocaine HCl; plasma, >12 h after dosing
Procedure: Single-dose plasma and urinary pharmacokinetics of the pharmaceutical composition following intranasal administration was characterized in this study. This was a single-dose study in 30 healthy volunteers. The objective of the study was to examine the systemic pharmacokinetics of the pharmaceutical composition following acute, topical intranasal administration.
(§1) A single dose of a pharmaceutical composition was administered to both nostrils using cottonoid pledgets. […] Each pledget absorbed approximately 1 mL of pharmaceutical composition (i.e., 40 mg cocaine hydrochloride). Two soaked pledgets were placed into each nasal cavity of the subject and against the anterior septum for 20 minutes; thus, a total dose of 160 mg of cocaine hydrochloride was administered.
Blood samples were collected pre-dose (30 minutes before pledget insertion), and 7.5, 15, 20, 30, 45, 60, 75, 90, and 105 minutes and 2, 3, 4, 6, 8, 10, and 12 hours from the start of application of the pharmaceutical composition.
The effect of gender on Cmax, Tmax, AUClast, AUCinf, and t1/2 was determined. The effects of age, body weight, and BMI on AUClast were determined.

[2] = Example 2 plasma pharmacokinetics, normal renal function vs severe renal impairment; settings: single intranasal 160 mg cocaine HCl, plasma
[3] = Example 3 urinary pharmacokinetics, normal hepatic function vs hepatic impairment; assay type: in vivo, human; settings: for Urine Recovery as % of Dose, Geomean / Urine Recovery as % of Dose, Mean: 0-32 h, single intranasal dose; for CLr Geomean / CLr Mean: Table 26
Procedure: Urine was collected prior to dosing and from 0-2, 2-4, 4-8, 8-12, 12-24, and 24-32 hours after beginning of dose application. […] Urinary pharmacokinetic parameters included total urinary recovery (μg), urinary recovery as a percentage of dose, and CLr.

[4] = Example 1 urinary pharmacokinetics after intranasal administration; assay type: in vivo, human; settings: healthy subjects; single intranasal 160 mg cocaine HCl; urine 0-12 h; metabolites as cocaine equivalents
Procedure: as §1
Urine samples were collected pre-dose and at the following intervals from the start of intranasal application of the pharmaceutical composition: 0-2 hours, 2-4 hours, 4-8 hours, and 8-12 hours. […] A 25-μL aliquot of each urine sample was processed by liquid-liquid extraction.
Urinary pharmacokinetic parameters were analyzed using noncompartmental methods.

[5] = normal hepatic function, single intranasal 160 mg cocaine HCl
[6] = subjects with hepatic impairment
[7] = subjects with hepatic impairment, 32 hours post administration
[8] = subjects with hepatic impairment, Table 30
[9] = subjects with normal hepatic function

## COC(=O)[C@@H]1[C@H]2CC[C@@H](C[C@@H]1O)N2C [EME, ecgonine methyl ester]
[1]
  plasma level not exceeded (metabolite not detectable in plasma): ≤ 50 ng/mL
[2]; normal renal function
  AUC0→t (Geometric mean): 41.8 ng·h/mL
  AUC0→t (Max): 231 ng·h/mL
  AUC0→t (Mean): 64.0 ng·h/mL
  AUC0→t (Median): 46.3 ng·h/mL
  AUC0→t (Min): 9.3 ng·h/mL
  AUC0→∞ (Geometric mean): 79.3 ng·h/mL
  AUC0→∞ (Max): 241 ng·h/mL
  AUC0→∞ (Mean): 94.5 ng·h/mL
  AUC0→∞ (Median): 66.8 ng·h/mL
  AUC0→∞ (Min): 44.4 ng·h/mL
  Clast (Geometric mean): 1.505 ng/mL
  Clast (Max): 2.58 ng/mL
  Clast (Mean): 1.583 ng/mL
  Clast (Median): 1.42 ng/mL
  Clast (Min): 1.070 ng/mL
  Cmax (Geometric mean): 5.8 ng/mL
  Cmax (Max): 19.2 ng/mL
  Cmax (Mean): 7.5 ng/mL
  Cmax (Min): 1.8 ng/mL
  Tlast (Geometric mean): 12.3 h
  Tlast (Max): 32.0 h
  Tlast (Mean): 13.5 h
  Tlast (Median): 12.0 h
  Tlast (Min): 480 min
  Tmax (Geometric mean): 2.196 h
  Tmax (Max): 4.00 h
  Tmax (Mean): 2.698 h
  Tmax (Median): 3.0 h
  Tmax (Min): 20 min
  t1/2 (Geometric mean): 5.02 h
  t1/2 (Max): 6.67 h
  t1/2 (Mean): 5.12 h
  t1/2 (Median): 5.53 h
  t1/2 (Min): 217 min
[2]; severe renal impairment
  AUC0→t (Geometric mean): 180.2 ng·h/mL
  AUC0→t (Max): 382 ng·h/mL
  AUC0→t (Mean): 201.1 ng·h/mL
  AUC0→t (Median): 196 ng·h/mL
  AUC0→t (Min): 61.0 ng·h/mL
  AUC0→∞ (Geometric mean): 244.5 ng·h/mL
  AUC0→∞ (Max): 527 ng·h/mL
  AUC0→∞ (Mean): 267.5 ng·h/mL
  AUC0→∞ (Median): 242 ng·h/mL
  AUC0→∞ (Min): 143.9 ng·h/mL
  Clast (Geometric mean): 2.218 ng/mL
  Clast (Max): 5.85 ng/mL
  Clast (Mean): 2.46 ng/mL
  Clast (Median): 1.93 ng/mL
  Clast (Min): 1.51 ng/mL
  Cmax (Geometric mean): 10.3 ng/mL
  Cmax (Max): 20.5 ng/mL
  Cmax (Mean): 11.9 ng/mL
  Cmax (Median): 11.5 ng/mL
  Cmax (Min): 3.2 ng/mL
  Tlast (Geometric mean): 31.5 h
  Tlast (Max): 32.0 h
  Tlast (Mean): 31.5 h
  Tlast (Median): 32.0 h
  Tlast (Min): 1680 min
  Tmax (Geometric mean): 3.715 h
  Tmax (Max): 12.00 h
  Tmax (Mean): 4.53 h
  Tmax (Median): 4.00 h
  Tmax (Min): 90 min
  t1/2 (Geometric mean): 13.16 h
  t1/2 (Max): 25.70 h
  t1/2 (Mean): 13.97 h
  t1/2 (Median): 12.27 h
  t1/2 (Min): 488 min
[3]; Impaired hepatic function
  Urine Recovery as % of Dose, Geomean: 2.43 % of Dose
  Urine Recovery as % of Dose, Mean: 3.51 % of Dose
  CLr Geomean: 10.2 L/h
  CLr Mean: 10.9 L/h
[3]; Normal hepatic function
  Urine Recovery as % of Dose, Geomean: 0.93 % of Dose
  Urine Recovery as % of Dose, Mean: 1.12 % of Dose
  CLr Geomean: 14.6 L/h
  CLr Mean: 17.2^d L/h
[3]; [5]
  0-32 h Urinary Recovery (geometric mean): 875.2 µg
  0-32 h Urinary Recovery (mean): 1048.23 µg
  0-32 h Urinary Recovery (median): 1164.3 µg
[3]; [6]
  Renal Clearance, geometric mean: 169.75 mL/min
  Renal Clearance, mean: 181.23 mL/min
  Renal Clearance, median: 160.92 mL/min
[3]; [7]
  0-32 h Urinary Recovery (geometric mean): 2278.1 µg
  0-32 h Urinary Recovery (mean): 3294 µg
  0-32 h Urinary Recovery (median): 2249.7 µg
[3]; [8]
  Renal Clearance, geometric mean: 169.753 mL/min
  Renal Clearance, mean: 181.233 mL/min
  Renal Clearance, median: 160.92 mL/min
[3]; [9]
  Renal Clearance, geometric mean: 243.011 mL/min
  Renal Clearance, mean: 286.128 mL/min
  Renal Clearance, median: 219.782 mL/min
[4]
  Total Urinary Recovery (Geometric mean): 252 µg
  Total Urinary Recovery (Mean): 275 µg
  Total Urinary Recovery (Median): 276 µg
  Urinary Recovery (Geometric mean): 0.240 % dose
  Urinary Recovery (Mean): 0.262 % dose
  Urinary Recovery (Median): 0.263 % dose
